pIC50: −log10 of the molar value. “And” between values parts separate entries of the source, which are not always exact repeats. Identical values can stand only once. “Also recorded” adds a separate entry of the source. Like-named read-outs stand apart in the source and are kept apart here. Values belong to the compound of their own block, whether it stands above or below them.
Tests used:
[1] = target: T1, 31-O-desmethylimmunomycin O-methyltransferase (DIMT) (Streptomyces hygroscopicus, UniProt Q9KID5); test: S-adenosyl-L-methionine:31-O-desmethylimmunomycin O-methyltransferase (DIMT) assay; format: biochemical, Streptomyces hygroscopicus var. ascomyceticus; conditions: for inhibition of DIMT activity: result in words
T1 construct: about 32 kDa; monomer by gel filtration
T1 sequence (Q9KID5 1-260): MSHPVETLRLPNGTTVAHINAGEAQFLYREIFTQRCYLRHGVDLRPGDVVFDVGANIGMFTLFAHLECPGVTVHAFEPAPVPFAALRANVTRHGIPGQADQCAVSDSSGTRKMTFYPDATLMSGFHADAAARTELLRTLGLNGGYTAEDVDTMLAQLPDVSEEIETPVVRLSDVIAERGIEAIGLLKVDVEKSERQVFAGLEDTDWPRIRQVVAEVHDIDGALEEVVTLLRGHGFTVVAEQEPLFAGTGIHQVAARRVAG
Method: The assay was carried out in 1 ml. mixture containing 0.025 mM 31-desmethylimmunomycin, 1 mM MgSO4 and different quantities of the enzyme source in 50 mM phosphate buffer, pH 7.5. Reaction was initiated by the addition of 1 nmole of ^14 C-SAM (S-adenosyl-L-[methyl-^14 C] methionine with the specific activity of 46 mCi/mmole. Incubation of the complete mixture was carried out at 34° C. for 20 minutes and the reaction was terminated by the addition of ethyl acetate. Product of the reaction was extracted with 2 ml of ethyl acetate and 1 ml of the extract was used for TLC and HPLC analysis. For the analysis of the radioactive reaction product (immunomycin), the ethyl acetate extract was spiked with the standard immunomycin and subjected to the TLC with a plate having plastic support. The plastic sheet was developed in chloroform:methanol (9:1) and area showing standard immunomycin under UV-light was cut and the radioactivity in the cut-strip was measured. The amount of the product formed was calculated from the measured radioactivity. For the HPLC analysis of the product of the enzyme reaction, several enzymatic reaction mixtures were pooled and the extract was subjected to the TLC analysis as above. The area on the silica gel plate showing the band having an Rf value identical with the standard immunomycin was scraped and eluted with ethyl acetate. The ethyl acetate extract was washed with water, dried under nitrogen and the residue was subjected to the HPLC analysis on Partisil 5-ODS-3 column with acetonitrile:water:phosphoric acid (65:35:0.1) as the eluting solvent. One milliliter fractions were collected and a portion of each fraction was examined for the radioactivity.
Examination of the optimal temperature, pH and metal requirement of the DIMT activity was carried out on the enzyme preparation obtained from DEAE-Sepharose column. For kinetic analysis, a preparation which had been purified through a second MonoQ column chromatography was utilized.

[2] = tested on: mouse T lymphocytes stimulated with ionomycin plus PMA; test: T-cell proliferation assay (ionomycin plus PMA induced T-cell stimulation); format: cell-based
Method: The principle of this assay, as described in J. Immunology, Vol. 144, pp. 251-258 (1990) by F. Dumont et al, is to measure the proliferation of mouse T lymphocytes stimulated with the combination of ionomycin plus PMA. A positive sample e.g. FK-506, in this assay will inhibit T-cell proliferation, as indicated by reduced tritiated thymidine uptake.
Purified Compound I, as prepared by HPLC above, was dissolved in absolute ethanol at 1 mg/ml.
Spleens from C57B1/6 mice were taken under sterile conditions and gently dissociated in ice-cold RPMI 1640 culture medium (GIBCO, Grand Island, N.Y.) supplemented with 10% heat-inactivated fetal calf serum (GIBCO). Cells were pelleted by centrifugation at 1500 rpm for 8 minutes. Contaminating red cells were removed by treating the pellet with ammonium chloride lysing buffer (GIBCO) for 2 minutes at 4° C. Cold medium was added and cells were again centrifuged at 1500 rpm for 8 minutes. T lymphocytes were then isolated by separation of the cell suspension on nylon wool columns as follows: Nylon wool columns were prepared by packing approximately 4 grams of washed and dried nylon wool into 20 ml plastic syringes. The columns were sterilized by autoclaving at 250° F. for 30 minutes. Nylon wool columns were wetted with warm (37° C.) culture medium and rinsed with the same medium. Washed spleen cells resuspended in warm medium were slowly applied to the nylon wool. The columns were then incubated in an upright position at 37° C. for 1 hour. Non-adherent T lymphocytes were eluted from the columns with warm culture medium and the cell suspensions were spun as above.
Purified T lymphocytes were resuspended at 2.5×10^5 cells/ml in complete culture medium composed of RPMI 1640 medium with 10% heat-inactivated fetal calf serum, […], 1 mM sodium pyruvate, 2×10^-5 M 2-mercaptoethanol and 50 μg/ml gentamycin. Ionomycin was added at 250 ng/ml and PMA at 10 ng/ml. The cell suspension was immediately distributed into 96 well flat-bottom microculture plates (Costar) at 200 μl/well. The control, being the medium without test drug, and various below-indicated dilutions of the sample (above-describedpurified Compound I) to be tested were then added in triplicate wells at 20 μl/well. FR-900506 was used as a standard. The culture plates were then incubated at 37° C. in a humidified atmosphere of 5% CO2 -95% air for 44 hours. The proliferation of T lymphocytes was assessed by measurement of tritiated thymidine incorporation. After 44 hours of culturing, the cells were pulse-labelled with 2 μCi/well of tritiated thymidine (NEN, Cambridge, Mass.). After another 4 hours of incubation, cultures were harvested on glass fiber filters using a multiple sample harvester. Radioactivity of filter discs corresponding to individual wells was measured by standard liquid scintillation counting methods (Betacounter). Mean counts per minute of replicate wells were calculated and the results expressed as percent inhibition of tritiated thymidine uptake (proliferation) as follows: [formula]
1. Mouse T cell cultures were pulsed with ^3 H-thymidine for 4 hours prior to harvesting at 48 hours.

[3] = Physical characteristics of Compound I; format: physicochemical; conditions: methanol
[4] = reputed, EPO Publication No. 0184162; cited from earlier work
[5] = Mus musculus, T-lymphocyte, Example 3, HPLC purified samples, same set of experiments, read-out: IC50, biological activity

SMILES: O=C(O)CN(CCN(CC(=O)O)CC(=O)O)CC(=O)O [EDTA]
inhibition of DIMT activity [1]: completely inhibited; also recorded: major inhibition

SMILES: CC[C@@H]1/C=C(\C)C[C@H](C)C[C@H](OC)[C@H]2O[C@@](O)(C(=O)C(=O)N3CCCC[C@H]3C(=O)O[C@H](/C(C)=C/[C@@H]3CC[C@@H](O)[C@H](OC)C3)[C@H](C)[C@@H](O)CC1=O)[C@H](C)C[C@@H]2OC [FR-900520, 17-Ethyl-1,14-dihydroxy-12-[2-(4-hydroxy-3-methoxycyclohexyl)-1-methylvinyl]-23-25-dimethoxy-13,19,21,27-tetramethyl-11,28-dioxa-4-azatricyclo [22.3.1.0^4,9]octacos-18-ene-2,3,10,16-tetraone]
pIC50 [2, 5]: ~9.00

Solubility [3]: Solubility in methanol
SMILES: CC[C@@H]1C=C2COC1(O)C[C@H](O)[C@@H](C)[C@@H](/C(C)=C/[C@@H]1CC[C@@H](O)[C@H](O)C1)OC(=O)[C@@H]1CCCCN1C(=O)C(=O)[C@]1(O)O[C@H]([C@@H](OC)C[C@@H](C)C2)[C@@H](OC)C[C@H]1C [Compound I]
effect of IL-2 on the inhibition of T-cell proliferation ([2]; 50 units/ml recombinant IL-2 added at the initiation of culture): reversed
inhibition at 0.0025 µM ([2]; Mus musculus, T-lymphocyte, 2.5 nM, splenic T-cells, ionomycin + PMA, 48 hours, read-out: Percent of Inhibition of tritiated thymidine uptake (proliferation)): 0%
inhibition at 0.0049 µM ([2]; Mus musculus, T-lymphocyte, 4.9 nM, splenic T-cells, ionomycin + PMA, 48 hours, read-out: Percent of Inhibition of tritiated thymidine uptake (proliferation)): 0%
inhibition at 0.0099 µM ([2]; Mus musculus, T-lymphocyte, 9.9 nM, splenic T-cells, ionomycin + PMA, 48 hours, read-out: Percent of Inhibition of tritiated thymidine uptake (proliferation)): 39%
inhibition at 0.0197 µM ([2]; Mus musculus, T-lymphocyte, 19.7 nM, splenic T-cells, ionomycin + PMA, 48 hours, read-out: Percent of Inhibition of tritiated thymidine uptake (proliferation)): 65%
inhibition at 0.0394 µM ([2]; Mus musculus, T-lymphocyte, 39.4 nM, splenic T-cells, ionomycin + PMA, 48 hours, read-out: Percent of Inhibition of tritiated thymidine uptake (proliferation)): 89%
inhibition at 0.0788 µM ([2]; Mus musculus, T-lymphocyte, 78.8 nM, splenic T-cells, ionomycin + PMA, 48 hours, read-out: Percent of Inhibition of tritiated thymidine uptake (proliferation)): 95%
inhibition at 0.1576 µM ([2]; Mus musculus, T-lymphocyte, 157.6 nM, splenic T-cells, ionomycin + PMA, 48 hours, read-out: Percent of Inhibition of tritiated thymidine uptake (proliferation)): 98%
inhibition at 0.3152 µM ([2]; Mus musculus, T-lymphocyte, 315.2 nM, splenic T-cells, ionomycin + PMA, 48 hours, read-out: Percent of Inhibition of tritiated thymidine uptake (proliferation)): 98%
pIC50 [2, 5]: ~7.96
IC50 ([2]; Mus musculus, T-lymphocyte, Example 4, table notes, read-out: IC50): 0.0115 µg/mL and 14.5 nM
pIC50 ([2]; Mus musculus, T-lymphocyte, generally in the range, read-out: IC50, general range): 7.74 to 8.00

inhibition of DIMT activity [1]: major inhibition
SMILES: Nc1ncnc2c1ncn2[C@@H]1O[C@H](CSCC[C@H](N)C(=O)O)[C@@H](O)[C@H]1O [S-adenosyl-homocysteine (SAH), S-adenosyl-homocysteine]

inhibition of DIMT activity [1]: major inhibition
SMILES: Nc1ncnc2c1ncn2[C@@H]1O[C@H](C[C@@H](N)CC[C@H](N)C(=O)O)[C@@H](O)[C@H]1O [sinefungin]

SMILES: N.N.O=S(=O)(O)O [ammonium sulfate]
inhibition of DIMT activity [1]: inhibited

SMILES: CC[C@@H]1/C=C(\C)C[C@H](C)C[C@H](OC)[C@H]2O[C@@](O)(C(=O)C(=O)N3CCCC[C@H]3C(=O)O[C@H](/C(C)=C/[C@@H]3CC[C@@H](O)[C@H](O)C3)[C@H](C)[C@@H](O)CC1=O)[C@H](C)C[C@@H]2OC [31-O-desmethylimmunomycin]
apparent Vmax of DIMT ([1]; 31-O-desmethylimmunomycin variable substrate, 40 uM SAM, Lineweaver-Burk): 45.5 nmol/h/mg

SMILES: C=CC[C@@H]1/C=C(\C)C[C@H](C)C[C@H](OC)[C@H]2O[C@@](O)(C(=O)C(=O)N3CCCC[C@H]3C(=O)O[C@H](/C(C)=C/[C@@H]3CC[C@@H](O)[C@H](OC)C3)[C@H](C)[C@@H](O)CC1=O)[C@H](C)C[C@@H]2OC [FR-900506, reference compound]
times more effective than cyclosporin [4]: 100 times
inhibition at 0.01 µg/mL ([2]; Mus musculus, T-lymphocyte, read-out: inhibition of T-cell proliferation by the standard): 99%

SMILES: CC[C@@H]1C=C2COC1(O)C[C@H](O)[C@@H](C)[C@@H](/C(C)=C/[C@@H]1CC[C@@H](O)[C@H](OC)C1)OC(=O)[C@@H]1CCCCN1C(=O)C(=O)[C@]1(O)O[C@H]([C@@H](OC)C[C@@H](C)C2)[C@@H](OC)C[C@H]1C [Compound II]
pIC50 [2, 5]: ~8.22
activity in the T-cell proliferation assay ([2]; result in words): positive inhibition of T-cell activation; also recorded: positive results

— patent US5149701A, “C-31 methylated FR-900520 cyclic hemiketal immunosuppressant agents” (Merck & Co., Inc., priority 1991, dated 1992)
